Laboratory results taken from paper PMC2921063 (Cancer Chemotherapy and Pharmacology, 2010).

Experiments:
rituximab = assay: Cognate antibody binding to peptide beads, rituximab; details: 10 μm TentaGel beads; flow cytometry and fluorescent microscopy
alemtuzumab = assay: Cognate antibody binding to peptide beads, alemtuzumab; details: 10 μm TentaGel beads; flow cytometry and fluorescent microscopy
[1] = Alemtuzumab bead-based detection in normal human serum; format: binding; details: alemtuzumab titrated into normal human serum; fluorescent secondary anti-human IgG; flow cytometry

For ACPTSNPSLCGGGS [pRTX-10T], the “antibody binding to peptide beads” value (rituximab) was “Specific cognate antibody binding was confirmed”.
With ACGSLSPSSCGGGS [pCp-1T] the “antibody binding to peptide beads” value (alemtuzumab) was “Specific cognate antibody binding was confirmed”.
For “alemtuzumab: anti-CD52 monoclonal antibody (Genzyme)”, the “bead fluorescence vs alemtuzumab concentration” value [1] was “fluorescent signals correlated with the alemtuzumab concentration”.
